The nature of data set [1]: Antiplatelet activity in human platelet rich plasma assessed as inhibition of ADP-induced platelet aggregation preincubated for 5 mins followed by ADP addition and measured after 20 mins by microplate reader analysis. The class given is functional, cell-based.
Data set [2] deals with T1, P2Y purinoceptor 12 (Homo sapiens, UniProt Q9H244). Briefly: Inhibition of 2-MeS-ADP induced P2Y12 (unknown origin) signalling expressed in CHO cells membrane incubated for 45 mins by 35S-GTPgammaS assay. The class given is functional, cell membranes.
Data set [3] is described as follows: Antiplatelet activity in rabbit platelet rich plasma assessed as inhibition of ADP-induced platelet aggregation preincubated for 5 mins followed by ADP addition and measured after 5 mins by turbidimetric method. Format: functional, cell-based. The note with it: Oryctolagus cuniculus.
A short description of data set [4]: Antiplatelet activity in human platelet rich plasma assessed as inhibition of ADP-induced platelet aggregation at 10 uM preincubated for 2 mins followed by ADP addition by turbidimetric method relative to control. Format: functional. Set-up: scale not given: the % may be the effect or the level left.
The nature of data set [5]: Antiplatelet activity in human platelet rich plasma assessed as inhibition of collagen-induced platelet aggregation at 3 uM preincubated for 2 mins followed by collagen addition by turbidimetric method relative to control. The class given is functional. Further details: scale not given: the % may be the effect or the level left.
Data set [6] is described as follows: Antiplatelet activity in human platelet rich plasma assessed as inhibition of thrombin-induced platelet aggregation at 3 uM preincubated for 2 mins followed by thrombin addition by turbidimetric method relative to control. The class given is functional. Further details: scale not given: the % may be the effect or the level left.
Data set [7] in a line: Antiplatelet activity in human platelet rich plasma assessed as inhibition of ADP-induced platelet aggregation preincubated for 2 mins followed by ADP addition for 5 mins. Format: functional, cell-based.
A short description of data set [8]: Antiplatelet activity in human platelet rich plasma assessed as inhibition of ADP-induced platelet aggregation preincubated for 2 mins followed by ADP addition and measured after 6 mins by Born method. The class given is functional, cell-based.
The target in data set [9] is T1, P2Y purinoceptor 12. Briefly: Displacement of tritium-labeled 2MeSADP from human P2Y12 expressed in CHO cells measured after 2 hrs by scintillation counting method. The class given is cell-based.
For data set [10], the target named is T1, P2Y purinoceptor 12. Briefly: Displacement of 2-MeS[3H]-ADP from P2Y12 (unknown origin) expressed in HEK293 cells preincubated for 5 mins followed by 2-MeS[3H]-ADP addition and measured after 30 mins by Topcount beta counter analysis. Format: cell-based.
Data set [11] in a line: Anti-platelet aggregation activity in rat platelets assessed as inhibition of ADP-induced aggregation pre-treated for 5 mins followed by ADP addition and measured after 5 mins. The class given is functional, cell-based.
The species entered for data set [12] is Rattus norvegicus. In words: Anti-platelet aggregation activity in Sprague-Dawley rat assessed as reduction in bleeding time. The class given is functional.
The nature of data set [13]: Anti-platelet aggregation activity in rat platelet rich plasma assessed as inhibition of ADP-induced aggregation at 250 ug/ml pre-treated for 5 mins followed by ADP addition by hemocytometer analysis. Format: functional. Further details: scale not given: the % may be the effect or the level left. To be noted: dose 250 µg/ml.
The target in data set [14] is T1, P2Y purinoceptor 12. In words: Binding affinity to P2Y12 (unknown origin).
A short description of data set [15]: Lipophilicity, logP of compound. The note with it: octanol/water. The class given is physicochemical.
Data set [16] is described as follows: Antiplatelet activity in rabbit platelet rich plasma assessed as inhibition of ADP-induced platelet aggregation at 150.8 uM preincubated for 3 mins followed by ADP addition and measured after 5 mins relative to control. Further details: scale not given: the % may be the effect or the level left. The note with it: time 8 min. Format: functional, Oryctolagus cuniculus.

Data set [17] can be described thus: Anti-platelet aggregation activity in human platelets assessed as inhibition of epinephrine induced aggregation. The class given is functional, cell-based.
In data set [18] the target is P2Y purinoceptor 1 (Homo sapiens, UniProt P47900). In words: Displacement of [3H]2MeSADP from human P2Y1 expressed in U2OS cell membranes incubated for 60 mins by scintillation counting method. Set-up: species or system Membrane.

pIC50, pKi: −log10 of the molar value. A value given as a limit tells only on which side of the number the result lay.

T1 sequence (Q9H244 whole entry): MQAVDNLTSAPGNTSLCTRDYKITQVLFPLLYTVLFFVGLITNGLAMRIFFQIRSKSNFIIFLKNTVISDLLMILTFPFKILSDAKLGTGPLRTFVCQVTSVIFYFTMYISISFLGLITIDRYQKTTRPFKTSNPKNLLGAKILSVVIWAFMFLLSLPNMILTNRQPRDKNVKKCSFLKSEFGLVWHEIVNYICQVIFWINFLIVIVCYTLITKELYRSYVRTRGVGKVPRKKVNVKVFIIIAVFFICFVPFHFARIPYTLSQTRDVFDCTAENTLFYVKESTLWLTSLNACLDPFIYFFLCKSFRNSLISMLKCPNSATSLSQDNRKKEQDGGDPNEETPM
P2Y purinoceptor 1, sequence (P47900 whole entry): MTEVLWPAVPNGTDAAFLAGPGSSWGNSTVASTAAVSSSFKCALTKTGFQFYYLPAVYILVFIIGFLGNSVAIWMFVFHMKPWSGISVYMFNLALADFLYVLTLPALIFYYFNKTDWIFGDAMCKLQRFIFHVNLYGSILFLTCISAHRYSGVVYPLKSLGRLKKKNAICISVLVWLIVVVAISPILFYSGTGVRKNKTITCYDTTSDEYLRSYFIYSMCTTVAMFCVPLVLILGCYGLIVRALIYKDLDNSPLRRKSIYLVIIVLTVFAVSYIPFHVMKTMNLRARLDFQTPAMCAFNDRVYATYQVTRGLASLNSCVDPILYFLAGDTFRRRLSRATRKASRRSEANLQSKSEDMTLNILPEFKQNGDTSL

`CCNC(=O)[C@@H]1CCCN1C(=O)COc1cc(C(=O)N[C@@H](CCC(=O)O)C(=O)N2CCN(C(=O)OCC)CC2)nc2cccc(F)c12`: the pIC50 in data set [1] was 7.52.
For the molecule `CCCC(=O)c1cc(C#N)c(N(C(=O)C2CCNCC2)S(=O)(=O)CCc2ccccc2)nc1C`, in [2], the pIC50 was 6.59.
Regarding `CC1CC(=O)NN=C1c1ccc(NC(=N)N)cc1` (stereo not given), the pIC50 in data set [3] is 6.71. Further, the Activity was found to be 95.09% in [4], 100% in [5] and 100% in data set [6].
For the molecule `CCCCOC(=O)N1CCN(C(=O)[C@H](CCP(=O)(O)O)NC(=O)c2cc(N3CC[C@H](OC)C3)nc(-c3ccccc3)n2)CC1`, the pIC50 in [7] is 9.00.
In the case of `CCOC(=O)N1CCN(C(=O)[C@H](CCC(=O)O)NC(=O)c2cc(OCC(=O)N3CCC[C@H]3C(=O)NC3CCC3)n(-c3cccc(F)c3)n2)CC1`, the negative-log IC50 (pIC50) in data set [8] is no less than 7.96.
Molecule `CCCCOC(=O)N1CCN(C(=O)[C@H](CP(=O)(O)O)NC(=O)c2nc(-c3ccccc3)sc2N2CCN(C)CC2)CC1` had a pIC50 in data set [9] of 9.00.
`CCCCOC(=O)N1CCN(C(=O)[C@H](CCC(=O)O)NC(=O)c2cc(OCC(=O)N3CCC[C@H]3C(=O)N(C)C3CC3)n(-c3ccccc3)n2)CC1`: the pIC50 in data set [8] was no less than 7.96.
The molecule `CCOC(=O)N1CCN(C(=O)[C@H](Cc2ccc(P(=O)(O)O)cc2)NC(=O)c2csc(-c3ccccc3)n2)CC1` showed a pIC50 in data set [9] of 9.00.
On to `CCCSc1nc(N[C@@H]2C[C@H]2c2ccccc2)c2nnn([C@@H]3CC[C@H](O)[C@@H](O)[C@H]3O)c2n1`, for which the pIC50 in data set [10] is 5.87.
In the case of `CC(C)CCCC(C)[C@H]1CC[C@]2(C)[C@@H]1[C@H](O)C[C@@H]1[C@@]3(C)CC[C@H](O)C(C)(C)[C@@H]3[C@@H](O[C@@H]3O[C@H](CO)[C@@H](O)[C@H](O)[C@H]3O)C[C@]12C` (stereo not given in full), in data set [11], the pIC50 is 4.51.
On to `CCC(C)C(N)C(=O)Oc1cc2c(s1)CCN(C(C(=O)C1CC1)c1ccccc1F)C2.Cl` (stereo not given), for which the ED50 in data set [12] was found to be 0.74 mg/kg.
As to `CCCCOC(=O)N1CCN(C(=O)[C@H](CP(=O)(O)O)NC(=O)c2nc(-c3ccccc3)sc2N(C)CCCC)CC1`, in [9], the pIC50 is 9.00.
On the same count and under the same terms, for `CCOC(=O)N1CCN(C(=O)[C@@H](CCC(=O)O)NC(=O)c2cc(Cl)cc(-c3ccccc3)n2)CC1` the value was 7.47.
As for `CCOC(=O)N1CCN(C(=O)[C@H](CCC(=O)O)NC(=O)c2cc(O[C@H](C)C(=O)N3CCC[C@H]3C(=O)NC3CCCC3)c3ccc(C)cc3n2)CC1`, the pIC50 in [1] is 7.52.
As to `CC(=O)CCC1=C(C)C[C@@H](O[C@@H]2O[C@H](CO[C@@H]3OC[C@@H](O)[C@H](O)[C@H]3O)[C@@H](O)[C@H](O)[C@H]2O)CC1(C)C`, in data set [13], the Activity turned out to be 89.59%.
Turning to `Cc1cnc(-c2cnc(N3CCN(C(=O)NS(=O)(=O)c4ccccc4)CC3)c(Cl)c2)o1`, the pIC50 in data set [14] was 6.49.
For `COC(=O)[C@H](c1ccccc1Cl)N1CCc2sccc2C1` [CLOPIDOGREL], in [15], the logP is 3.74.
For the molecule `COc1cc2c(cc1OC)-c1c(C)c3ccc(OC)c(OC)c3c[n+]1CC2` [DEHYDROCORYDALINE], in data set [16], the Activity amounted to 73.48%.
On to `C[C@@H]1CC[C@]2(C(=O)O)CC[C@]3(C)C(=CC[C@@H]4[C@@]5(C)CC[C@H](O)C(C)(C)[C@@H]5CC[C@]43C)[C@@H]2[C@]1(C)O` [POMOLIC ACID], for which the negative-log IC50 (pIC50) in data set [17] was 7.70.
In turn, `CC(=O)Oc1cc2c(s1)CCN(C(C(=O)C1CC1)c1ccccc1F)C2` (stereo not given) [PRASUGREL] displayed a lipophilicity (logP) in data set [15] of 3.42.
As to `O=C(/C=C/c1ccc(O)c(O)c1/C=C/c1ccc(O)c(O)c1)O[C@H](Cc1ccc(O)c(O)c1)C(=O)O` [SALVIANOLIC ACID A], the pKi in data set [18] is 4.69.
Turning to `Clc1ccccc1CN1CCc2sccc2C1` [TICLOPIDINE], in [15], the lipophilicity (logP) stood at 4.05.

These data come from ChEMBL document CHEMBL5126507, “P2Y12 antagonists: Approved drugs, potential naturally isolated and synthesised compounds, and related in-silico studies” (Eur J Med Chem, 2022).
